Laboratory results reported in US9617251B2, “Indanylaminopyridylcyclopropanecarboxylic acids, pharmaceutical compositions and uses thereof” (BOEHRINGER INGELHEIM INTERNATIONAL GMBH, priority 2015, dated 2017).
Values after ≈ are worked out from the molar mass of the structure shown.

How the values were obtained:
[1] = Chemical stability: degradation kinetics in acidic aqueous media (pH ca. 1.2), HPLC recovery; assay type: physicochemical; conditions: pH value of ca. 1.2 (acetonitrile/0.1 M aqueous HCl 2:3), 37° C.
Protocol: Degradation kinetics is used to simulate chemical stability of compounds in the acidic part of the gastro intestinal tract. […] Their application as medical drugs to treat human diseases is therefore less restricted and troublesome.
The chemical stability of the compounds of the invention at pH value of ca. 1.2 is determined as follows:
Compound is dissolved in an HPLC vial either in a mixture of acetonitrile/0.1 M aqueous HCl (2:3; pH ca. 1.2) or in a mixture of acetonitrile/McIlvaine buffer pH 7.4 (2:3) to get a concentration of approximately 0.25 mg/ml. The vial was then transferred into an HPLC autosampler system and maintained at a temperature of 37° C. A first sample is taken and injected immediately into a standard HPLC system with a UV DAD detector. Further samples are injected after 2, 4, 6, 8 and 10 hours. Amount of degraded compound is measured by determining the recovery rate of compound [%] for each injection using an HPLC standard gradient method. Therefore the peak area of the main peak for the first injection (AUt0) is determined and set as 100%. Peak area of the main peak is determined also for the further injections (AUtn, n=2, 4, 6, 8, 10) and expressed as fraction of (AUt0)/(AUtn, n=2, 4, 6, 8, 10) [%].

[2] = biological target: T1, cytochrome P450 2C8-isoenzyme (Homo sapiens, UniProt P10632); test: Inhibition of CYP-2C8 (deethylation of amodiaquine, human liver microsomes); assay type: in vitro ADME; conditions: CYP-2C8, human liver microsomes, amodiaquine 1 μM, 37° C.
T1 construct: from tissue; host or cells: human liver microsomes
T1 sequence (P10632 1-490): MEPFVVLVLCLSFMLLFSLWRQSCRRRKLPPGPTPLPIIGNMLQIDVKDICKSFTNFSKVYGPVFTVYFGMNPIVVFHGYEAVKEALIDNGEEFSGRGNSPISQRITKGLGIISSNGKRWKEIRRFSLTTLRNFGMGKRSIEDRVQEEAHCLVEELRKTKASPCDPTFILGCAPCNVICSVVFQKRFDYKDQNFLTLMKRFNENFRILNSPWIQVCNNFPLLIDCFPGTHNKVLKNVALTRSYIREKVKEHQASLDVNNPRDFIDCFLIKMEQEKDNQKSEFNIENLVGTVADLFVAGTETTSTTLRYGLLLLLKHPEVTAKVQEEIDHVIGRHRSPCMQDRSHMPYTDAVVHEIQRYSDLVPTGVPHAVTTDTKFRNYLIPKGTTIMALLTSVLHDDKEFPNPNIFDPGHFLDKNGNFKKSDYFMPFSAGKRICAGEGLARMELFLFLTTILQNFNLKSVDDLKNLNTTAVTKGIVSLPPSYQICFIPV
Summary of the method: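 Amodiaquine deethylation (1 μM substrate) was measured at 37 °C in human liver microsomes (0.05 mg/mL), 0.1 M Tris, 5 mM MgCl2, and started with 1 mM NADPH. Desethylamodiaquine was quantified by LC-MS/MS against a d5 internal standard. IC50 came from five concentrations, typically top 10–50 μM with 1:4 dilutions, fitted by least squares to a slope-and-background model.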

[3] = Aqueous solubility in buffer vs acetonitrile/water (1/1), LC-UV; assay type: physicochemical; conditions: kinetic from dmso stock, buffer pH 2.2, 24 h shaking, 2.5% DMSO
Summary of the method: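 Aliquots of 10 mM DMSO stock diluted into buffer or acetonitrile/water (1/1), shaken 24 h, filtered and quantified by LC-UV; buffer amount compared with acetonitrile/water amount. Range 0.001-0.125 mg/mL at 2.5% DMSO; ">" marks over 90% dissolved.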

human GPR40 receptor = human GPR40 receptor (Homo sapiens, UniProt O14842); test: IP1 accumulation measurements using the IPOne assay system (1321N1 cells stably expressing human GPR40 receptor); assay type: cell-based; conditions: 1321N1 cells expressing human GPR40, 1 h stimulation at 37° C.
Sequence of human GPR40 receptor (O14842 whole entry): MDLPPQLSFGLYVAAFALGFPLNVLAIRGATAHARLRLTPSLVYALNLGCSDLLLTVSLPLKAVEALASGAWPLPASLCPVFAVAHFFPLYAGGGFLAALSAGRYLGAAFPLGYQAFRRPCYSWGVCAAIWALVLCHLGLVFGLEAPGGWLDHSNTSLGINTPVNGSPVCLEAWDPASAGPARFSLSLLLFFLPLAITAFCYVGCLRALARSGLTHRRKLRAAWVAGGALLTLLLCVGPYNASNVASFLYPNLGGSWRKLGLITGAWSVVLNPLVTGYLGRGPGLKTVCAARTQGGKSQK
Summary of the method: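 Cells were stimulated with compounds for 1 h at 37 °C in HEPES-buffered stimulation buffer containing 50 mM LiCl, pH 7.4. IP1 was then detected by HTRF (IP1-d2/anti-IP1 cryptate, 1 h at room temperature), and 665/615 ratios were converted using an IP1 reference curve, with pEC50 obtained by variable-slope sigmoidal fitting.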

[4] = biological target: T2, cytochrome P450 2C9-isoenzyme (Homo sapiens, UniProt P11712); test: Inhibition of CYP-2C9 (hydroxylation of diclofenac, human liver microsomes); assay type: in vitro ADME; conditions: CYP-2C9, human liver microsomes, diclofenac 10 μM, 37° C.
T2 construct: from tissue; host or cells: human liver microsomes
T2 sequence (P11712 whole entry): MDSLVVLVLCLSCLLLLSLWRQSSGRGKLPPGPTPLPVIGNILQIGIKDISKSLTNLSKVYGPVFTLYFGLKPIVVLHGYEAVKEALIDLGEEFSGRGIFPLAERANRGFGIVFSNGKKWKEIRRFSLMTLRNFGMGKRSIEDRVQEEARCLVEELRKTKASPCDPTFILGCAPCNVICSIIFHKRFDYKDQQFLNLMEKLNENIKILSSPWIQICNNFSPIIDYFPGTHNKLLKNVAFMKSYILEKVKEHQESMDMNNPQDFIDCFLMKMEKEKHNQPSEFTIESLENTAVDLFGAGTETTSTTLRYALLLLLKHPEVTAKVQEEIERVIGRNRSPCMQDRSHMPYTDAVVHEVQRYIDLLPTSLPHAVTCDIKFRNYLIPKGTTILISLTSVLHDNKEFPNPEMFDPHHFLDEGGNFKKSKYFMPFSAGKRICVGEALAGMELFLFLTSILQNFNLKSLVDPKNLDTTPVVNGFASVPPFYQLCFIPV
Summary of the method: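 Human liver microsomes (0.1 mg/mL) in 0.1 M TRIS, 5 mM MgCl2, 10 μM diclofenac, 37 °C, duplicate five-point compound series; started with 1 mM NADPH, quenched by cooling and acetonitrile. Hydroxydiclofenac quantified by LC-MS/MS against 13C6 internal standard; IC50 by least-squares fit with slope and background terms.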

Row | Compound | Amount of degradation after 2 h [1] [%] | IC50 [2] [µM] | solubility at 24 h [3] [µg/mL] | EC50 (human GPR40 receptor) [µM] | IC50 [4] [µM]
1 | COc1cc(F)c(-c2ccc(F)c3c2CC[C@H]3Nc2ccc([C@H]3C[C@@H]3C(=O)O)cn2)c(F)c1 [Example 56] | <0.5 | 33 | 73 (≈ 161 µM) | 0.151 | 28
2 | Nc1cc(F)c(-c2ccc(F)c3c2CC[C@H]3Nc2ccc([C@H]3C[C@@H]3C(=O)O)cn2)c(F)c1 [Example 58] | <0.5 | > 50 | 107 (≈ 243 µM) | 0.462 | > 50
3 | Cc1cc(OCC2(O)CCOCC2)cc(C)c1-c1ccc(F)c2c1CC[C@H]2Nc1ccc([C@H]2C[C@@H]2C(=O)O)cn1 [Example 63] | <0.5 | > 50 | 118 (≈ 216 µM) | 0.02 | > 50
4 | CNC(=O)c1cc(C)c(-c2ccc(F)c3c2CC[C@H]3Nc2ccc([C@H]3C[C@@H]3C(=O)O)cn2)c(C)c1 [Example 66] | <1.0 | > 50 | 115 (≈ 243 µM) | 0.039 | > 50
5 | COc1cc(-c2cc(C)c(-c3ccc(F)c4c3CC[C@H]4Nc3ccc([C@H]4C[C@@H]4C(=O)O)cn3)c(C)c2)ccn1 [Example 72] | <0.5 | 8 | 101 (≈ 193 µM) | 0.006 | 18
6 | O=C(O)[C@H]1C[C@@H]1c1ccc(N[C@@H]2CCc3c(-c4ccccc4C(F)(F)F)ccc(F)c32)nc1 [Example 74] | <1.0 | 21 | 82 (≈ 180 µM) | 0.049 | 14
7 | Cc1cc(C(=O)N(C)C)cc(C)c1-c1ccc(F)c2c1CC[C@H]2Nc1ccc([C@H]2C[C@@H]2C(=O)O)cn1 [Example 75] | <0.5 | > 50 | 117 (≈ 240 µM) | 0.186 | > 50
